Measurements reported in patent publication US20230295201A1 (Gilead Sciences, Inc., priority 2020, published 2023).
Like-named read-outs stand apart in the source and are kept apart here.

Columns and labels:
Type in all cases: cell-based
[1] = system: Dengue serotype 2 New Guinea C (NGC) strain; assay: DENV-2 Huh-7 EC50 (qPCR in Huh7 cells)
How it was run: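 Huh7 cells infected 2 h at 37 °C with DENV-2 NGC at MOI 0.1, then plated with graded compound doses (0.25% DMSO) in triplicate. After 48 h, viral RNA quantified by duplex TaqMan RT-qPCR against GAPDH; EC50 normalized to positive control and no-compound wells.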

HCV replicon 1B = assay: HCV Rep 1B EC50 (replicon luciferase)
Description: (§1) Compounds were serially diluted in ten steps of 1:3 dilutions in 384-well plates. All serial dilutions were performed in four replicates per compound within the same 384-well plate. […] To each well of a black polystyrene 384-well plate (Greiner Bio-one, Monroe, NC), 90 μL of cell culture medium (without Geneticin) containing 2000 suspended HCV replicon cells was added with a Biotek μFlow workstation. For compound transfer into cell culture plates, 0.4 μL of compound solution from the compound serial dilution plate was transferred to the cell culture plate on a Biomek FX workstation. The DMSO concentration in the final assay wells was 0.44%. The plates were incubated for 3 days at 37° C. with 5% CO2 and 85% humidity. The HCV replicon assay was a multiplex assay, able to assess both cytotoxicity and antireplicon activity from the same well. The CC50 assay was performed first. The media in the 384-well cell culture plate was aspirated, and the wells were washed four times with 100 μL of PBS each, using a Biotek ELX405 plate washer. A volume of 50 μL of a solution containing 400 nM calcein AM (Anaspec, Fremont, CA) in 1×PBS was added to each well of the plate with a Biotek μFlow workstation. The plate was incubated for 30 min at room temperature before the fluorescence signal (excitation 490 nm, emission 520 nm) was measured with a Perkin-Elmer Envision plate reader. The EC50 assay was performed in the same wells as the CC50 assay. The calcein-PBS solution in the 384-well cell culture plate was aspirated with a Biotek ELX405 plate washer. A volume of 20 μL of Dual-Glo luciferase buffer (Promega, Madison, WI) was added to each well of the plate with a Biotek μFlow Workstation. The plate was incubated for 10 min at room temperature. A volume of 20 μL of a solution containing a 1:100 mixture of Dual-Glo Stop & Glo substrate (Promega, Madison, WI) and Dual-Glo Stop & Glo buffer (Promega, Madison, WI) was added to each well of the plate with a Biotek μFlow Workstation. The plate was then incubated at room temperature for 10 min before the luminescence signal was measured with a Perkin-Elmer Envision Plate Reader.

HCV replicon 2A = assay: HCV Rep 2A EC50 (replicon luciferase)
Description: as §1

[2] = system: Dengue 2, New Guinea strain (NGC); assay: DENV-2 moDC EC50 (qPCR in human monocyte-derived dendritic cells); settings: moDCs
Description: Human monocyte-derived dendritic cells (moDCs) were derived from CD14+ monocytes (AllCells) cultured in Human Mo-DC Differentiation medium containing GM-CSF and IL-4 (Miltenyi Biotec). On day 7, moDCs were harvested by mechanical disruption, washed and suspended in serum-free RPMI. moDCs were infected with Vero-derived Dengue 2, New Guinea strain (NGC) at a MOI=0.1 for two hours in serum-free RPMI with gentle agitation at 37° C. Cells were washed and resuspended in 10% serum-containing RPMI (Gibco, supplemented with sodium pyruvate, NEAA, Penicillin-Streptomycin). 10^5 cells were plated in triplicate in 96-well plates with compounds dispensed at graded doses (Hewlett-Packard D300 Digital Dispenser). All wells were normalized to 0.25% DMSO. At 48 hours, cells were washed with 1×PBS and all supernatants removed. Total RNA was extracted using RNEasy 96 plates (Qiagen) and used to generate first-strand cDNA using XLT cDNA 5× Supermix (QuantaBio). cDNA was used as a template in a Taqman qPCR duplex reaction specific to DENV2 viral and GAPDH gene expression. EC50 values were determined using Prism Graphpad software, with normalization to a positive control and no compound negative control wells.

[3] = read-out: HCV Rep 1B EC50, replicon cells, 3 days
[4] = read-out: HCV Rep 2A EC50, replicon cells, 3 days
[5] = Dengue virus, DENV2, Dendritic cell, 48 h
[6] = Dengue virus, DENV2, Huh-7, 48 h
[7] = Hepatitis C virus, 72 h, read-out: HCV Rep 1B EC50, replicon cells, 3 days
[8] = Hepatitis C virus, 72 h, read-out: HCV Rep 2A EC50, replicon cells, 3 days

## C[C@H](NP(=O)(OC[C@@]1(C#N)O[C@@H](c2ccc3c(N)ncnn23)[C@H](O)[C@@H]1O)Oc1ccccc1)C(=O)OCC1CCCCC1 (single isomer, unassigned) [Example 248]
[1]; 48 hours
  EC50: 756 nM
HCV replicon 1B; [3]
  EC50: 503 nM
HCV replicon 2A; [4]
  EC50: 1180 nM

## CCOC(=O)[C@H](C)N[P@](=O)(OC[C@@]1(C#N)O[C@@H](c2ccc3c(N)ncnn23)[C@H](O)[C@@H]1O)Oc1ccccc1 [Example 29, Ethyl ((S)-(((2R,3S,4R,5S)-5-(4-aminopyrrolo[2,1-f][1,2,4]triazin-7-yl)-2-cyano-3,4-dihydroxytetrahydrofuran-2-yl)methoxy)(phenoxy)phosphoryl)-L-alaninate]
[2]; [5]
  EC50: > 5000 nM
[1]; [6]
  EC50: 1880 nM

## CCCCCCOC(=O)[C@H](C)NP(=O)(OC[C@@]1(C#N)O[C@@H](c2ccc3c(N)ncnn23)[C@H](O)[C@@H]1O)Oc1ccccc1 (stereo partly drawn) [Example 192, hexyl ((((2R,3S,4R,5S)-5-(4-aminopyrrolo[2,1-f][1,2,4]triazin-7-yl)-2-cyano-3,4-dihydroxytetrahydrofuran-2-yl)methoxy)(phenoxy)phosphoryl)-L-alaninate]
[2]; [5]
  EC50: 534 nM
[1]; [6]
  EC50: 2760 nM

## C[C@H](NP(=O)(OC[C@@]1(C#N)O[C@@H](c2ccc3c(N)ncnn23)[C@H](O)[C@@H]1O)Oc1cccc2ccccc12)C(=O)OC1CCCCC1 (stereo partly drawn) [Example 203, cyclohexyl ((((2R,3S,4R,5S)-5-(4-aminopyrrolo[2,1-f][1,2,4]triazin-7-yl)-2-cyano-3,4-dihydroxytetrahydrofuran-2-yl)methoxy)(naphthalen-1-yloxy)phosphoryl)-L-alaninate]
[2]; [5]
  EC50: 599 nM
[1]; [6]
  EC50: 1730 nM
HCV replicon 1B; [7]
  EC50: 332 nM
HCV replicon 2A; [8]
  EC50: 671 nM

## C[C@H](NP(=O)(OC[C@@]1(C#N)O[C@@H](c2ccc3c(N)ncnn23)[C@H](O)[C@@H]1O)Oc1ccccc1)C(=O)OCCC(C)(C)C (stereo partly drawn) [Example 251, 3,3-dimethylbutyl ((((2R,3S,4R,5S)-5-(4-aminopyrrolo[2,1-f][1,2,4]triazin-7-yl)-2-cyano-3,4-dihydroxytetrahydrofuran-2-yl)methoxy)(phenoxy)phosphoryl)-L-alaninate]
[2]; [5]
  EC50: 116 nM
[1]; [6]
  EC50: 529 nM
HCV replicon 1B; [7]
  EC50: 595 nM
HCV replicon 2A; [8]
  EC50: 1110 nM

## COC(=O)[C@H](C)N[P@](=O)(OC[C@@]1(C#N)O[C@@H](c2ccc3c(N)ncnn23)[C@H](O)[C@@H]1O)Oc1ccccc1 [Example 52, methyl ((S)-(((2R,3S,4R,5S)-5-(4-aminopyrrolo[2,1-f][1,2,4]triazin-7-yl)-2-cyano-3,4-dihydroxytetrahydrofuran-2-yl)methoxy)(phenoxy)phosphoryl)-L-alaninate]
[1]; [6]
  EC50: 5480 nM
HCV replicon 1B; [7]
  EC50: 3960 nM
HCV replicon 2A; [8]
  EC50: 7460 nM

## C[C@H](N[P@](=O)(OC[C@@]1(C#N)O[C@@H](c2ccc3c(N)ncnn23)[C@H](O)[C@@H]1O)Oc1ccccc1)C(=O)O[C@H]1CC[C@H](C(C)(C)C)CC1 (single isomer, unassigned) [Example 22]
[1]; [6]
  EC50: 665 nM

## CCCCCCCCCCCCCCCCOCCCOP(=O)(O)OC[C@@]1(C#N)O[C@@H](c2ccc3c(N)ncnn23)[C@H](O)[C@@H]1O [Example 149, ((2R,3S,4R,5S)-5-(4-aminopyrrolo[2,1-f][1,2,4]triazin-7-yl)-2-cyano-3,4-dihydroxytetrahydrofuran-2-yl)methyl (3-(hexadecyloxy)propyl) hydrogen phosphate]
HCV replicon 1B; Hepatitis C virus, 72 h, replicon cells, 3 days, read-out: HCV Rep 1B EC50
  EC50: 31100 nM
HCV replicon 2A; Hepatitis C virus, 72 h, replicon cells, 3 days, read-out: HCV Rep 2A EC50
  EC50: > 44400 nM

## C[C@H](NP(=O)(OC[C@@]1(C#N)O[C@@H](c2ccc3c(N)ncnn23)[C@H](O)[C@@H]1O)Oc1ccccc1)C(=O)OCC1CCCCC1 (single isomer, unassigned) [Example 247]
[1]; [6]
  EC50: 1280 nM
HCV replicon 1B; [7]
  EC50: 665 nM
HCV replicon 2A; [8]
  EC50: 1680 nM

## C[C@H](NP(=O)(OC[C@@]1(C#N)O[C@@H](c2ccc3c(N)ncnn23)[C@H](O)[C@@H]1O)Oc1ccccc1)C(=O)OCCC(C)(C)C (single isomer, unassigned) [Example 253]
[2]; 48 hours
  EC50: 429 nM
[1]; 48 hours
  EC50: 489 nM
HCV replicon 1B; [3]
  EC50: 452 nM
HCV replicon 2A; [4]
  EC50: 887 nM

## C[C@H](NP(=O)(OC[C@@]1(C#N)O[C@@H](c2ccc3c(N)ncnn23)[C@H](O)[C@@H]1O)Oc1ccccc1)C(=O)OCCC(C)(C)C (single isomer, unassigned) [Example 252]
[2]; [5]
  EC50: 284 nM
[1]; [6]
  EC50: 697 nM
HCV replicon 1B; [7]
  EC50: 624 nM
HCV replicon 2A; [8]
  EC50: 1650 nM

## C[C@H](N[P@](=O)(OC[C@@]1(C#N)O[C@@H](c2ccc3c(N)ncnn23)[C@H](O)[C@@H]1O)Oc1ccccc1)C(=O)OC1CCCCC1 (single isomer, unassigned) [Example 6]
[2]; [5]
  EC50: > 6190 nM
[1]; [6]
  EC50: 1630 nM
HCV replicon 1B; [7]
  EC50: 793 nM
HCV replicon 2A; [8]
  EC50: 1270 nM

## C[C@H](N[P@](=O)(OC[C@@]1(C#N)O[C@@H](c2ccc3c(N)ncnn23)[C@H](O)[C@@H]1O)Oc1ccccc1)C(=O)OCC(C)(C)C [Example 94]
[2]; 48 hours
  EC50: 398 nM
[1]; 48 hours
  EC50: 451 nM
HCV replicon 1B; replicon cells, 3 days, read-out: HCV Rep 1B EC50
  EC50: 278 nM
HCV replicon 2A; replicon cells, 3 days, read-out: HCV Rep 2A EC50
  EC50: 493 nM

## C[C@H](N[P@](=O)(OC[C@@]1(C#N)O[C@@H](c2ccc3c(N)ncnn23)[C@H](O)[C@@H]1O)Oc1ccccc1)C(=O)O[C@H]1CC[C@H](C(F)(F)F)CC1 (single isomer, unassigned) [Example 18]
HCV replicon 1B; [7]
  EC50: 1110 nM
HCV replicon 2A; [8]
  EC50: 1480 nM

## CCCCCCCCCCCC(=O)OCCNP(=O)(OC[C@@]1(C#N)O[C@@H](c2ccc3c(N)ncnn23)[C@H](O)[C@@H]1O)Oc1ccccc1 (mixture of isomers) [Example 181, 2-(((((2R,3S,4R,5S)-5-(4-aminopyrrolo[2,1-f][1,2,4]triazin-7-yl)-2-cyano-3,4-dihydroxytetrahydrofuran-2-yl)methoxy)(phenoxy)phosphoryl)amino)ethyl dodecanoate]
[1]; [6]
  EC50: 795 nM
HCV replicon 1B; [7]
  EC50: 861 nM
HCV replicon 2A; [8]
  EC50: 1680 nM

## CCCCCCCCCCCCOC(=O)[C@H](C)NP(=O)(OC[C@@]1(C#N)O[C@@H](c2ccc3c(N)ncnn23)[C@H](O)[C@@H]1O)Oc1ccccc1 (stereo partly drawn) [Example 191, dodecyl ((((2R,3S,4R,5S)-5-(4-aminopyrrolo[2,1-f][1,2,4]triazin-7-yl)-2-cyano-3,4-dihydroxytetrahydrofuran-2-yl)methoxy)(phenoxy)phosphoryl)-L-alaninate]
[2]; [5]
  EC50: 1070 nM
[1]; [6]
  EC50: 13300 nM
HCV replicon 1B; [7]
  EC50: 19700 nM
HCV replicon 2A; [8]
  EC50: 34100 nM

## CCC(C)(C)COC(=O)[C@H](C)NP(=O)(OC[C@@]1(C#N)O[C@@H](c2ccc3c(N)ncnn23)[C@H](O)[C@@H]1O)Oc1ccccc1 (stereo partly drawn) [Example 254, 2,2-dimethylbutyl ((((2R,3S,4R,5S)-5-(4-aminopyrrolo[2,1-f][1,2,4]triazin-7-yl)-2-cyano-3,4-dihydroxytetrahydrofuran-2-yl)methoxy)(phenoxy)phosphoryl)-L-alaninate]
[2]; [5]
  EC50: 90 nM
[1]; [6]
  EC50: 797 nM
HCV replicon 1B; [7]
  EC50: 368 nM
HCV replicon 2A; [8]
  EC50: 787 nM

## CCC(CC)COC(=O)[C@H](C)N[P@](=O)(OC[C@@]1(C#N)O[C@@H](c2ccc3c(N)ncnn23)[C@H](O)[C@@H]1O)Oc1ccccc1 (single isomer, unassigned) [Example 25]
[2]; [5]
  EC50: 524 nM
[1]; [6]
  EC50: 840 nM
HCV replicon 1B; [7]
  EC50: 443 nM
HCV replicon 2A; [8]
  EC50: 448 nM
